Test results published in patent publication US11292781B2, “Pyrimidine tricyclic enone derivatives for inhibition of ROR-gamma and other uses” (REATA PHARMACEUTICALS, INC., priority 2016, dated 2022).

Legend:
[1] = test system: IL-17A levels in primary human CD4+ T cells differentiated into Th17 cells; test: IL-17 release from differentiated primary human T-cells (IL-17A HTRF); assay type: cell-based; conditions: primary human CD4+ T cells, Th17 differentiation, 46-hour incubation; read-out: hIL17 IC50
Protocol: C. IL-17 Release from Differentiated Primary Human T-Cells and Cell Viability Primary human cryopreserved CD4+ T Cells (Lonza, donor #0000402103) were plated in Lymphocyte Growth Medium-3 (LGM-3, Lonza) according to the manufacturer's recommendations, and allowed to recover for approximately 3 hours at 37° C. with 5% CO2 in a humidified atmosphere. […] Triplicate wells were plated for each test condition. DMSO (final concentration ≤0.1%) was used as the vehicle. Immediately after plating, CD4+ T cells were activated by adding Dynabeads Human T-Activator CD3/CD28 (Life Technologies; bead-to-cell ratio of 1:2.5) and differentiated into Th17 cells by adding a mixture of the following cytokines: transforming growth factor-β (TGF-β, 5 ng/mL), IL-6 (20 ng/mL), IL-23 (20 ng/mL), and […] (10 ng/mL). Undifferentiated control cells received only cytokine IL-2 (50 ng/mL). All human recombinant cytokines were purchased from R&D Systems. Following a 46-hour incubation at 37° C. with 5% CO2 in a humidified atmosphere, the plates were centrifuged for 3 minutes at 250×g, and half of the supernatant was transferred to a new plate to be used in the IL-17A assay (see below). Cell viability was assessed in the original plate using the CyQuant Direct Assay (Life Technologies). CyQuant values from test compound samples were normalized to those from DMSO-treated samples. The concentration of IL-17A in the supernatant was measured using the Homogeneous Time-Resolved Fluorescence (HTRF) assay (Cisbio Bioassays) according to the manufacturer's protocol. The assay was performed at room temperature in low volume, solid white 384-well plates (Greiner Bio-One). […] A non-linear regression analysis with log (inhibitor) vs. normalized response using a variable slope was applied to fit the data and determine the IC50 values for inhibition of IL-17A levels and cell viability.

[2] = test system: Nrf2 transcription factor (GST ARE luciferase reporter in AREc32 cells); test: AREc32 luciferase reporter assay; assay type: cell-based, human; conditions: EC2×: concentration required to increase GST ARE luciferase reporter activity by 2-fold, 19 hours
From the text: A. AREc32 Luciferase Reporter Assay The AREc32 luciferase reporter assay allows for quantitative assessment of the endogenous activity of the Nrf2 transcription factor in cultured mammalian cells. AREc32 cells are derived from MCF-7 human breast carcinoma cells that were stably transfected with a reporter construct that contains the firefly luciferase gene located downstream of eight copies of the rat GSTA2 antioxidant response element (ARE) sequence (Wang et al., 2006; CXR Biosciences). Active NRF2 binds to the ARE sequences and increases expression of the firefly luciferase gene. […] Luciferase activity was determined using the ONE-Glo Luciferase assay (Promega). The luminescence signal was measured on a BMG Pherastar microplate reader. The mean luminescence value from test compound-treated wells was normalized to that from DMSO-treated wells and was represented as fold-induction. Data were analyzed using GraphPad Prism version 6.00 for Windows, GraphPad Software, La Jolla Calif. USA. A non-linear regression curve with log (agonist) vs. response using a variable slope was used to fit the data. […] EC2× values were interpolated from the curve.

**Q.** Which results are given for `COc1nc(Nc2ccncc2)nc2c1CC[C@@H]1[C@@H](C)C(=O)C(C#N)=C[C@@]21C` [T8]?
**A.** IC50 [1]: 185 nM; HRF2 ARE 2× [2]: 534 nM

**Q.** Which results are given for `COc1nc(-c2ccnc3ccccc23)nc2c1CC[C@@H]1[C@@H](C)C(=O)C(C#N)=C[C@@]21C` [T9]?
**A.** IC50 [1]: 67 nM; HRF2 ARE 2× [2]: 510 nM

**Q.** What does the source list for `C[C@H]1C(=O)C(C#N)=C[C@@]2(C)c3nc(C4CCCCC4)nc(-c4ccccc4)c3CC[C@H]12` [T23]?
**A.** IC50 [1]: 40 nM; HRF2 ARE 2× [2]: 144 nM

**Q.** `C[C@H]1C(=O)C(C#N)=C[C@@]2(C)c3nc(-c4ccnc5ccccc45)nc(-c4ccccc4)c3CC[C@H]12` [T32] was tested. Which IC50 [1] did it give?
**A.** 68 nM

**Q.** And the “HRF2 ARE 2×” value [2]?
**A.** 272 nM

**Q.** Which results are given for `COc1cc(-c2nc(-c3ccccc3)c3c(n2)[C@]2(C)C=C(C#N)C(=O)[C@H](C)[C@H]2CC3)ccn1` [T33]?
**A.** IC50 [1]: 40 nM; HRF2 ARE 2× [2]: 480 nM

**Q.** Which results are given for `CC1=C2CCc3c(-c4ccccc4F)nc(-c4ccnc5ccccc45)nc3[C@]2(C)C=C(C#N)C1=O` [T38]?
**A.** IC50 [1]: 374 nM; HRF2 ARE 2× [2]: >2000 nM

**Q.** For `C[C@H]1C(=O)C(C#N)=C[C@@]2(C)c3nc(-c4ccnc5ccccc45)nc(-c4cccc(F)c4)c3CC[C@H]12` [T39], which IC50 [1] is on record?
**A.** 63 nM

**Q.** What about the “HRF2 ARE 2×” value [2] of the same compound?
**A.** 427 nM

**Q.** `C[C@H]1C(=O)C(C#N)=C[C@@]2(C)c3nc(-c4ccnc5ccccc45)nc(-c4ccc(F)cc4)c3CC[C@H]12` [T40] was tested. Which IC50 [1] did it give?
**A.** 63 nM

**Q.** And the “HRF2 ARE 2×” value [2]?
**A.** 273 nM

**Q.** What does the source list for `CC(C)Oc1nc(-c2ccnc3ccccc23)nc2c1CC[C@@H]1[C@@H](C)C(=O)C(C#N)=C[C@@]21C` [T41]?
**A.** IC50 [1]: 64 nM; HRF2 ARE 2× [2]: 528 nM

**Q.** What does the source list for `CC(C)c1nc(-c2ccnc3ccccc23)nc2c1CC[C@@H]1[C@@H](C)C(=O)C(C#N)=C[C@@]21C` [T42]?
**A.** IC50 [1]: 165 nM; HRF2 ARE 2× [2]: 513 nM

**Q.** For `Cc1cc(-c2nc(-c3ccccc3)c3c(n2)[C@]2(C)C=C(C#N)C(=O)[C@H](C)[C@H]2CC3)ccn1` [T43], which IC50 [1] is on record?
**A.** 39 nM

**Q.** And the “HRF2 ARE 2×” value [2]?
**A.** 278 nM

**Q.** With `C[C@H]1C(=O)C(C#N)=C[C@@]2(C)c3nc(C4CCN(C(=O)OC(C)(C)C)CC4)nc(-c4ccccc4)c3CC[C@H]12` [T44] as the compound, how does the IC50 [1] read?
**A.** 60 nM

**Q.** And the “HRF2 ARE 2×” value [2]?
**A.** 596 nM

**Q.** Which IC50 [1] does the source give for `CC(=O)N1CCC(c2nc(-c3ccccc3)c3c(n2)[C@]2(C)C=C(C#N)C(=O)[C@H](C)[C@H]2CC3)CC1` [T46] here?
**A.** 177 nM

**Q.** And the “HRF2 ARE 2×” value [2]?
**A.** 735 nM

**Q.** What does the source list for `C[C@H]1C(=O)C(C#N)=C[C@@]2(C)c3nc(C4=CCCN(C(=O)OC(C)(C)C)C4)nc(-c4ccccc4)c3CC[C@H]12` [T47]?
**A.** IC50 [1]: 38 nM; HRF2 ARE 2× [2]: 622 nM

**Q.** Which IC50 [1] does the source give for `C[C@H]1C(=O)C(C#N)=C[C@@]2(C)c3nc(C4=CCCNC4)nc(-c4ccccc4)c3CC[C@H]12.Cl` [T48] here?
**A.** 225 nM

**Q.** And the “HRF2 ARE 2×” value [2]?
**A.** 460 nM

**Q.** Which IC50 [1] does the source give for `CC(=O)N1CCC=C(c2nc(-c3ccccc3)c3c(n2)[C@]2(C)C=C(C#N)C(=O)[C@H](C)[C@H]2CC3)C1` [T49] here?
**A.** 181 nM

**Q.** What about the “HRF2 ARE 2×” value [2] of the same compound?
**A.** 491 nM

**Q.** How did the IC50 [1] turn out when `C[C@H]1C(=O)C(C#N)=C[C@@]2(C)c3nc(-c4ccnc5ccccc45)nc(-c4ccc(F)cc4F)c3CC[C@H]12` [T52] was run?
**A.** 35 nM

**Q.** What about the “HRF2 ARE 2×” value [2] of the same compound?
**A.** 272 nM

**Q.** What does the source list for `C[C@H]1C(=O)C(C#N)=C[C@@]2(C)c3nc(-c4ccnc(C5CC5)c4)nc(-c4ccccc4F)c3CC[C@H]12` [T53]?
**A.** IC50 [1]: 33 nM; HRF2 ARE 2× [2]: 380 nM

**Q.** With `C[C@H]1C(=O)C(C#N)=C[C@@]2(C)c3nc(-c4ccnc(C(F)(F)F)c4)nc(-c4ccccc4F)c3CC[C@H]12` [T54] as the compound, how does the IC50 [1] read?
**A.** 31 nM

**Q.** What about the “HRF2 ARE 2×” value [2] of the same compound?
**A.** 483 nM

**Q.** For `Cc1cnccc1-c1nc(-c2ccccc2F)c2c(n1)[C@]1(C)CC(C#N)=C(O)[C@H](C)[C@H]1CC2` [T55], which IC50 [1] is on record?
**A.** 590 nM

**Q.** What about the “HRF2 ARE 2×” value [2] of the same compound?
**A.** >2000 nM

**Q.** `C[C@H]1C(=O)C(C#N)=C[C@@]2(C)c3nc(-c4ccncc4F)nc(-c4ccccc4F)c3CC[C@H]12` [T57] was tested. Which IC50 [1] did it give?
**A.** 77 nM

**Q.** What about the “HRF2 ARE 2×” value [2] of the same compound?
**A.** 419 nM

**Q.** What does the source list for `Cc1cncc(-c2nc(-c3ccccc3F)c3c(n2)[C@]2(C)C=C(C#N)C(=O)[C@H](C)[C@H]2CC3)c1` [T58]?
**A.** IC50 [1]: 69 nM; HRF2 ARE 2× [2]: 155 nM

**Q.** Which IC50 [1] does the source give for `C[C@H]1C(=O)C(C#N)=C[C@@]2(C)c3nc(-c4cnc5ccccc5c4)nc(-c4ccccc4F)c3CC[C@H]12` [T59] here?
**A.** 34 nM

**Q.** What about the “HRF2 ARE 2×” value [2] of the same compound?
**A.** 311 nM

**Q.** What does the source list for `CC(=O)Nc1cc(-c2nc(-c3ccccc3F)c3c(n2)[C@]2(C)C=C(C#N)C(=O)[C@H](C)[C@H]2CC3)ccn1` [T61]?
**A.** IC50 [1]: 60 nM; HRF2 ARE 2× [2]: 461 nM

**Q.** Which IC50 [1] does the source give for `C[C@H]1C(=O)C(C#N)=C[C@@]2(C)c3nc(-c4cccc5cccnc45)nc(-c4ccccc4F)c3CC[C@H]12` [T62] here?
**A.** 39 nM

**Q.** What about the “HRF2 ARE 2×” value [2] of the same compound?
**A.** 401 nM

**Q.** What does the source list for `Cc1cc(-c2nc(-c3ccccc3F)c3c(n2)[C@]2(C)C=C(C#N)C(=O)[C@H](C)[C@H]2CC3)c2cccc(F)c2n1` [T63]?
**A.** IC50 [1]: 21 nM; HRF2 ARE 2× [2]: 259 nM

**Q.** For `C[C@H]1C(=O)C(C#N)=C[C@@]2(C)c3nc(-c4ccnc(N5CCOCC5)c4)nc(-c4ccccc4F)c3CC[C@H]12` [T64], which IC50 [1] is on record?
**A.** 35 nM

**Q.** What about the “HRF2 ARE 2×” value [2] of the same compound?
**A.** 425 nM

**Q.** Which results are given for `C[C@H]1C(=O)C(C#N)=C[C@@]2(C)c3nc(-c4ccnc(-c5ccccc5)c4)nc(-c4ccccc4F)c3CC[C@H]12` [T65]?
**A.** IC50 [1]: 29 nM; HRF2 ARE 2× [2]: 463 nM

**Q.** For `C[C@H]1C(=O)C(C#N)=C[C@@]2(C)c3nc(-c4cncc5ccccc45)nc(-c4ccccc4F)c3CC[C@H]12` [T66], which IC50 [1] is on record?
**A.** 39 nM

**Q.** And the “HRF2 ARE 2×” value [2]?
**A.** 190 nM

**Q.** What does the source list for `C[C@H]1C(=O)C(C#N)=C[C@@]2(C)c3nc(-c4cnn5ccccc45)nc(-c4ccccc4F)c3CC[C@H]12` [T67]?
**A.** IC50 [1]: 63 nM; HRF2 ARE 2× [2]: 208 nM

**Q.** For `C[C@H]1C(=O)C(C#N)=C[C@@]2(C)c3nc(-c4cccc5ncccc45)nc(-c4ccccc4F)c3C[C@H]12` [T173], which “HRF2 ARE 2×” value [2] is on record?
**A.** >2000 nM

**Q.** `C[C@H]1C(=O)C(C#N)=C[C@@]2(C)c3nc(-c4ccnc(C5CC5)c4)nc(-c4ccccc4F)c3C[C@H]12` [T174] was tested. Which “HRF2 ARE 2×” value [2] did it give?
**A.** >2000 nM

**Q.** `C[C@H]1C(=O)C(C#N)=C[C@@]2(C)c3nc(-c4ccnc(CCC(N)=O)c4)nc(-c4ccccc4F)c3CC[C@H]12` [T177] was tested. Which “HRF2 ARE 2×” value [2] did it give?
**A.** 491 nM

**Q.** `CC[C@@]1(C)C(=O)C(C#N)=C[C@@]2(C)c3nc(-c4ccnc(C5CC5)c4)nc(-c4ccccc4F)c3CC[C@H]12` [T181] was tested. Which “HRF2 ARE 2×” value [2] did it give?
**A.** 518 nM

**Q.** For `Cc1cc(-c2nc(-c3ccccc3)c3c(n2)[C@]2(C)C=C(C#N)C(=O)[C@H](C)[C@H]2CCC3)ccn1` [T182], which “HRF2 ARE 2×” value [2] is on record?
**A.** 892 nM

**Q.** How did the “HRF2 ARE 2×” value [2] turn out when `Cc1cc(-c2nc(-c3ccc(F)cc3)c3c(n2)[C@]2(C)C=C(C(N)=O)C(=O)[C@H](C)[C@H]2CC3)ccn1` [T184] was run?
**A.** 1832 nM

**Q.** With `Cc1cc(-c2nc(-c3ccc(F)cc3)c3c(n2)[C@]2(C)CC(C#N)C(=O)[C@H](C)[C@H]2CC3)ccn1` (stereo partly shown) [T187] as the compound, how does the “HRF2 ARE 2×” value [2] read?
**A.** >2000 nM
